| SMILES | melting point |
| --- | --- |
| COc1ccccc1N1CCN(CCCn2c(=O)[nH]c3cscc3c2=O)CC1 | 187 to 188 °C |
| O=C1N(c2cc(Cl)nc(Cl)c2)C(=O)[C@]2(Cc3ccc(OC(F)(F)F)cc3)C[C@@H](c3cc[nH]c3C(=O)C(F)(F)F)CN12 | 167 °C |
| COc1cc(Nc2c(C#N)cnc3cc4cc(OC)c(OCCCl)cc4cc23)c(Cl)cc1F | 193 to 204 °C |
| CC1OC(n2c(Cl)c(C#N)c3cc(Cl)c(Cl)cc32)C(O)C1O (configuration not stated) | 227 to 228 °C |
| COc1cc(CCCC2OC(=O)NC2=O)ccc1OCc1csc(-c2ccccc2)n1 (configuration not stated) | 96 to 97 °C |
| CC1CCc2c(N3CCN(S(=O)(=O)C(F)(F)F)CC3)c(Cl)cc3c(=O)c(C(=O)O)cn1c23 (configuration not stated) | 232 to 235 °C |
| CCCCCCC(C)(C)c1ccc([C@@H]2CC(=O)C[C@@H](C#N)C2)c(OCc2ccccc2)c1 (relative stereo) | 79 °C |
| CC(=O)NC1CCN(c2ccc(Cl)cn2)CC1 | 196 to 198 °C |
| CCCCn1nc(C)c(C(N)=O)c1Cc1ccc(-c2ccccc2-c2nnn[nH]2)cc1 | 204 to 208 °C |
| CC(C)(O)C(O)c1ccc(-c2ccc(C(CC3CCOCC3)c3ccc(S(C)(=O)=O)c(Cl)c3)[nH]2)nc1 (configuration not stated) | 138 to 140 °C |
| CCc1cc(NC(=O)N2CCN(c3ccsc3)CC2)c(OC)nc1C | 108 to 110 °C |
| CC(C)(C)C(=O)Nc1nc(O)c2c(n1)NCC(CO)C2 (configuration not stated) | 236 to 238 °C |
| Cc1nc(I)cn1-c1ccc(F)cc1 | 151 °C |
| Cc1ccc(C(=C2CN(C(c3ccccc3)c3ccccc3)C2)S(C)(=O)=O)cc1 | 210 °C |
| CC[C@H]1COC(=O)N1c1nc(-c2ccc(Br)cc2)c(F)s1 | 105 to 107 °C |
| CN1C(=O)Cn2cc(C(=O)NCc3ccc(Cl)cc3)c(=O)c3cc(I)cc1c32 | 278 to 283 °C |
| COc1ccc(CC(=O)NCCc2cc3c(cc2C)CCC3)cc1OC | 144 to 145 °C |
| O=[N+]([O-])c1ccc(Oc2ccccc2)c(Cl)c1NCc1ccc(Cl)cc1 | 75 to 76 °C |
| COc1ccc(Cc2oc3c(c2C)C(=O)C(C)=C(C)C3=O)cc1 | 111 to 113 °C |
| COc1cc(C)nc(NC(=O)NS(=O)(=O)c2ccccc2CCSC#N)n1 | 161 to 165 °C |
| COn1c(-c2ccccc2)nc2c(N)nc3ccccc3c21 | 241 to 243 °C |
| CCc1c(-c2ccc(OCc3ccccc3)cc2)c2cc(CO)c3cccc1n32 | 148 to 150 °C |
| COCc1cn2c(C)c(C)nc2c2c1C(=O)[C@H](O)[C@@H](c1ccccc1)N2 | 206 to 208 °C |
| Cc1ccc(NC(=O)C2C(=O)C3CC[C@](C)(C2=O)C3(C)C)cc1 (some centres not stated) | 80 to 82 °C |

Second part, the molecule after the results:

| melting point | SMILES |
| --- | --- |
| 76 °C | C=C(C)C(=O)OCCCCc1cc(-c2ccc(OC(=O)C(=C)C)cc2)ccc1OC(=O)C(=C)C |
| 151 to 152 °C | CCCCNC(=O)COc1ccn2nc(-c3ccccc3)c(-c3ccc(=O)n(C(C)C)n3)c2c1 |
| 210 to 215 °C | O=C(O)CCCC(=O)c1ccc(O)c(O)c1 |
| 138 °C | CCCCCCCCCCCCCCCCS(=O)(=O)NCCc1ccc(OCC(=O)O)cc1 |
| 133 to 134 °C | CCOc1nn(Cc2cncc(OCc3nc(-c4ccccc4)oc3C)c2)cc1CCC(=O)O |
| 85 to 88 °C | CCCc1ccc(S(=O)(=O)n2c(CCC(=O)OC)cc3cc(Cl)ccc32)cc1 |
| 98 to 100 °C | O=C(O)C(=O)c1ccc(OCCCCCCCCCCCCOc2ccccc2)cc1 |
| 73 to 74 °C | CCC(C)OS(=O)(=O)c1ccc(C(=O)c2cc(Cl)ccc2Cl)cc1 (configuration not stated) |
| 87 to 88 °C | CCOc1ccc(C)c(N(Cc2ccccc2)C(=O)C(C)(C)Br)c1 |
| 135 to 138 °C | COC(=O)C1=C(C)N=C(OC)N(C(=O)NCCCC(=O)OC(C)(C)C)C1c1ccc(F)cc1 (configuration not stated) |
| > 250 °C | O=C(O)/C=C/c1ccc(/C=C/c2ccncc2)nc1 |
| 96 to 97 °C | COC(=O)C#Cc1cccc(C(=O)OC)c1 |
| 115 to 117 °C | CC(=O)N1CCc2cc(S(=O)(=O)n3c(CCCC(=O)O)cc4cc(Cl)ccc43)ccc21 |

Reference: a melting point compilation (Tetko et al.; mined from patent text by program, amines drawn as free bases though some values may be those of a salt)
